# Reference: patent US10918687B2, “Kava derived therapeutic compounds and methods of use thereof” (KUALITY HERBCEUTICS LLC, priority 2013, dated 2021)
# Columns and labels:
# [1] = system: NNK-induced DNA damage in liver tissues; assay: NNK-induced DNA damage in A/J mouse liver tissues; assay type: in vivo, A/J mice; details: diet Day 1-Day 7, 24 h after NNK; data not shown
# Experimental: DNA was isolated and purified from ˜100 mg lung and liver tissues of each mouse, following Genomic-tip 100/G protocol from Qiagen Corp (Valencia, Calif.).
# (§1) After one-week acclimation, A/J mice were weighed and randomized into ten groups (3 mice per group except for Group 1 that had one mouse as the negative control) and switched to the AIN-93 G diet on a date defined as Day 1. Mice in Groups 1 and 2 were given the AIN-93 G diet during Day 1-Day 7. Mice in Groups 3-10 were given the AIN-93 G diets supplemented with kava, (+)-DHK, (+)-DHM, and synthetic (±)-DHM respectively at the specified dose during Day 1-Day 7. Mice in Groups 2-10 were given a single dose of NNK at 100 mg/kg bodyweight in saline (0.1 ml) via i.p. injection at the beginning of Day 7 while the mouse in Group 1 was given saline (0.1 ml). Mice were euthanized by CO2 overdosing 24 h after NNK treatment, and lung and liver tissues were collected and stored at −80° C. until DNA isolation. A set of NNK-induced DNA adducts (O^6-mG, 7-mG, 7-pobG, O^6-pobdG, O^2-pobdT, 7-phbG, O^6-phbdG and O^2-phbdT) were quantified by following reported procedures (Leitzman, P et al. (2014) Cancer. Prev. Res., 7: 86-96; Peterson, L A et al. (2013) Chem. Res. Toxicol. 26: 1464-1473; Upadhyaya, P et al. (2008) Chem. Res. Toxicol. 21: 1468-1476). For 7-mG isolation, DNA (30 μg) was dissolved in 10 mM sodium phosphate buffer, pH 7 (500 μL) and spiked with [^13C1^2H3]7-mG (10 pmol). Samples were heated to 80° C. for 30 minutes. An aliquot (100 μL) was removed for 7-mG analysis.
# [2] = system: NNK-induced lung tumorigenesis; assay: NNK-induced lung adenoma formation in A/J mice; assay type: in vivo; details: Example 4, Day 119
# Experimental: Female A/J mice, 5-6 weeks of age from the Jackson Laboratory (Bar Harbor, Me.), were handled according to animal welfare protocols approved by IACUC at the University of Minnesota. […] After one-week acclimation, mice were weighed, randomized into different groups and switched to AIN-93G-powdered diet, defined as Day 1. The number of mice in each group was specified in the Result Section. On Day 7 and Day 14, mice in the negative control groups received 0.1 mL physiological saline solution while mice in the other groups received NNK (100 and 67 mg/kg respectively in 0.1 mL of physiological saline solution) via i.p. injection. At the end of Day 21, mice were switched to AIN-93M-powdered diet until the end of the study. Diet consumption was measured twice weekly and bodyweight was monitored weekly. All mice were euthanized with an overdose of carbon dioxide. The lungs were collected and tumors on the surface of the lung were counted.
# Data on lung adenoma multiplicity were reported as mean±SD (n=5-40). […] For Experiment 2, unpaired t-test was used for comparison between NNK control and kava treatment groups. Two-sided p-value≤0.05 was considered statistically significant. Data on DNA adducts were reported as mean±SD (n=3). For the time-course study, unpaired […] was used for comparisons between NNK control and kava treatment groups. Two-sided p-value≤0.05 was considered statistically significant: *p<0.05, **p<0.01, and ***p<0.001. For the 24-h time point study, one-way ANOVA was used to compare means.
# After one-week acclimation, mice were weighed, randomized into eight groups and switched to the AIN-93 G diet on a date defined as Day 1. The number of mice in each group is specified in the Results Section (FIG. 36). Mice were fed diets supplemented with different compounds at the dose specified in the Results Section during Day 1-Day 14. On Day 7 and Day 14, mice in the negative control group received 0.1 mL of saline solution while mice in the other groups received NNK (100 and 67 mg/kg, respectively, in 0.1 mL of saline solution) via i.p. injection. At the end of Day 21, mice were switched to the AIN-93 M diet until the end of the study. The diet was replenished twice weekly. The diet consumption was measured twice weekly and the bodyweight was monitored weekly. This study was terminated at the end of Day 119. All mice were euthanized with CO2 overdosing.
# [3] = system: NNK-induced DNA adducts in lung tissues; assay: NNK-induced DNA adducts in A/J mouse lung tissues (LC-ESI-MS/MS); assay type: in vivo, A/J mice; details: 24 h after NNK
# From the text: DNA was isolated from the whole lung tissue of each individual mouse following Puregene DNA isolation protocol (Qiagen Corp, Valencia, Calif.) (Urban et al., Chem Res Toxicol 2012; 25:2167-78). 7-pobG, O^2-pobdT, O^6-pobdG, and O^6-mG were quantified by LC-ESI-MS/MS, following established protocols (Urban et al., Chem Res Toxicol 2012; 25:2167-78; Peterson et al., Cancer Res 1991; 51:5557-64).
# After one-week acclimation, A/J mice were weighed and randomized into seven groups (3 mice per group) and switched to the AIN-93 G diet on a date defined as Day 1. Mice in Groups 1 and 2 were given the AIN-93 G diet during Day 1-Day 7. Mice in Groups 3-7 were given the AIN-93 G diet supplemented with desmethoxyyangonin, (+)-DHK, (+)-kavain, (+)-DHM, or (+)-methysticin respectively, at a dose of 1 mg/g of diet during Day 1-Day 7. Mice in Groups 2-7 were given a single dose of NNK at 100 mg/kg bodyweight in saline (0.1 ml) via intraperitoneal (i.p.) injection at the beginning of Day 7 while mice in Group 1 were given saline (0.1 ml). Mice were euthanized by CO2 overdosing 24 h after NNK treatment, and lung tissues were collected and stored at −80° C. until DNA isolation. A number of NNK-induced DNA modifications (O^6-mG, 7-pobG, O^6-pobdG and O^2-pobdT) were quantified by following a reported procedure (Leitzman, P et al. (2014) Cancer. Prev. Res., 7: 86-96).
# as §1
# [4] = system: APAP-induced hepatotoxicity; assay: Short-term combination study: potentiation of APAP-induced hepatotoxicity in C57BL/6 mice
# From the text: Six week-old female C57BL/6J mice (Jackson Laboratories, ME) were housed at specific pathogen-free animal facilities of Research Animal Resources, University of Minnesota with free access to standard rodent food and water. All mice were acclimatized for one week before being used for experiments. Mice were gavaged with dose formulations at the indicated doses and times, euthanized by CO2 overdosing with necropsy performed by experienced researchers.
# The short-term combination studies were designed to evaluate the potential synergism of kava and its chemicals to APAP induced hepatotoxicity. C57BL/6 mice were randomized (8-15 mice per group) and were administered with PEG-400 (200 μL), kava (500 mg/kg bodyweight), DHM or FKA and FKB in PEG-400 (200 μL) at the indicated doses daily via oral gavage for two days. On the third day, mice in the respective groups were co-administered with APAP (800 mg/kg bodyweight) in PEG-400 (200 μL). Bodyweight was recorded daily. Necropsies were performed 24 hours after the last gavage by experienced researchers. Serum from each mouse was analyzed for ALT and AST. Livers were collected and preserved in 10% neutral buffered formalin. Appropriately fixed tissues were processed into paraffin blocks using standard histological techniques, and 5 μm sections were cut and stained with hematoxylin and eosin (H&E).
# The clinical chemistry data were reported as mean±SD (n=4-15). […] One-way analysis of variance (ANOVA) was used to compare the means among different groups in the short-term combination studies. Dunnett's test was used for comparisons of APAP and other treatment groups when the one-way ANOVA analysis was statistically significant. p-value≤0.05 was considered statistically significant. All analyses were conducted in GraphPad Prism 4 (GraphPad Software, Inc. La Jolla, Calif.).
smiles,measurement,setting,value
"COC1=CC(=O)O[C@@H](CCc2ccc3c(c2)OCO3)C1 (racemic) [(±)-DHM, (±)-dihydromethysticin]",effect on NNK-induced DNA damage in the liver tissues,[1],none of the treatments had significant effects
same,lung adenoma formation (incidence and multiplicity),[2]; 0.5 mg/g of diet Day 1-Day 14,adenoma free
"COC1=CC(=O)O[C@@H](CCc2ccccc2)C1 [(+)-DHK, (+)-dihydrokavain]",effect on O^6-mG and POB adducts,[3]; 1 mg/g of diet,did not reduce any of these adducts
same,effect on NNK-induced DNA damage in the liver tissues,[1],none of the treatments had significant effects
same,lung adenoma formation (incidence and multiplicity),[2]; 0.05 mg/g of diet Day 1-Day 14,no reduction at all
same,lung adenoma formation (incidence and multiplicity),[2]; 0.5 mg/g of diet Day 1-Day 14,no reduction at all
COC1=CC(=O)O[C@@H](/C=C/c2ccc3c(c2)OCO3)C1 [(+)-methysticin],effect on NNK-induced O^6-mG,[3]; isolated kavalactones 1 mg/g of diet Day 1-Day 7,significantly reduced
"CC(=O)Nc1ccc(O)cc1 [APAP, acetaminophen, reference compound]",serum ALT and AST activities,[4]; APAP alone 800 mg/kg bodyweight via gavage,significantly increased
same,liver lesions,"[4]; APAP alone 800 mg/kg, lesions graded 0 to 4",evenly distributed among different severity categories
